Our source for the AC50, EC50 and IC50 values is ChEMBL document CHEMBL1201862, “PubChem BioAssay data set” (2004).

The source made the active and inactive calls. Rule as the data show it, for most assays here: actives have a measured EC50 and inactives only a lower limit. Some results are limits rather than exact numbers.

One experiment concerns the target CAAX prenyl protease 2 (Saccharomyces cerevisiae S288c, UniProt Q03530). In kind it is biochemical.
Experiment [1] can be described thus: cytotoxicity in KRAS-transformed pancreatic duct cells, primary screen, cell-based, fluorescence, HTS (AID 431).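 Also: cell line used: HPDE-C7K.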 The class given is functional. The note with it: Homo sapiens.
The nature of experiment [2]: cytotoxicity in HPDE-C7 cells, cell-based, fluorescence, HTS (AID 430). As to conditions: Homo sapiens. In kind it is functional.
Experiment [3] addresses E3 ubiquitin-protein ligase Mdm2/Protein Mdm4 (Homo sapiens, UniProt O15151+Q00987). The experiment is described as follows: Mdm2-MdmX interaction inhibitors, dose response, luminescence detection (AID 504593). The class given is functional.
Experiment [4] has as its target Alkaline phosphatase, placental type (Homo sapiens, UniProt P05187). The experiment is described as follows: PLAP enzyme inhibitors, confirmation, biochemical, luminescence (AID 1512). In kind it is functional.
The target in the next experiment is Large T antigen (Simian virus 40, UniProt P03070). The class given is functional, Betapolyomavirus macacae.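 Also: Confirmatory-stage PubChem screen for compounds that inhibit SV40 T antigen.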
Experiment [5] deals with Luciferin 4-monooxygenase (Photinus pyralis, UniProt P08659). The experiment is described as follows: Counter Screen for Luciferase-based Assay Positives. [Related pubchem assays: 620, 618, 411 ]. A general note: The purpose of a counterscreen is to sort out artefacts and off-target activity.
The nature of experiment [6]: inhibitors of firefly luciferase expression or activity, dose response, H4 neuroglioma cells, luminescence (AID 1990). The class given is functional, cell-based.
Another experiment can be described thus: cells. The class given is functional, cell-based.
Experiment [7] can be described thus: luciferase reporter signal reduction – luminescence, H4-C neuroglioblastoma cells, dose response (AID 2458).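 Also: H4 neuroglioblastoma cells stably carrying a luciferase reporter gene fusion.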 In kind it is functional, cell-based. In general terms: A reporter such as luciferase makes a cellular process visible.
Experiment [8] deals with T1, Heat shock factor protein 1 (Mus musculus, UniProt P38532).
T1 sequence (P38532 whole entry): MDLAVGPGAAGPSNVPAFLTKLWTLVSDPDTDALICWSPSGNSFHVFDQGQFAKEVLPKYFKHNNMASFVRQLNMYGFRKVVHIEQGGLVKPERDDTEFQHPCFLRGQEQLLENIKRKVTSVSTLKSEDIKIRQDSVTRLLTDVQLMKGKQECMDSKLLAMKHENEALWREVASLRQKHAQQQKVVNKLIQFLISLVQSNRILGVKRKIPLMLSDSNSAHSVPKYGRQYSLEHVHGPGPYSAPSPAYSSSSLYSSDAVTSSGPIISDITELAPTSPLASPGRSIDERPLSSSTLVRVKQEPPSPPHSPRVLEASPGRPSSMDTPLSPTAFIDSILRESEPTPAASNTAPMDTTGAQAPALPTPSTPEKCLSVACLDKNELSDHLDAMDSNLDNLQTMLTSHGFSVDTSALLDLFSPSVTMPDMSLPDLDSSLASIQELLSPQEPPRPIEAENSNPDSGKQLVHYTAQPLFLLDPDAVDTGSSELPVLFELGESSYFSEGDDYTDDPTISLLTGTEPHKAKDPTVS
The experiment is described as follows: inhibition of MG132-induced HSE-luciferase signal, confirmation, cell-based, NIH3T3, luminescence, dose retest (AID 2382).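 Also: NIH3T3 fibroblasts with HSF1-driven luciferase reporter stressed by proteasome inhibitor MG132; luminescence from HSF1-driven luciferase expression after 8 hours of MG132 stress.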 In kind it is functional.

Experiment [9] can be described thus: inhibitors of SNCA 5'UTR-driven translation, confirmation, luminescence, H4 neuroglioblastoma cells, dose confirmation (AID 2454).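 Also: H4 neuroglioblastoma cells carrying an alpha-synuclein 5'UTR luciferase reporter; potency for inhibition of the luciferase signal.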 The class given is functional, cell-based.
A short description of experiment [10]: cytotoxicity in HEK-293T cells, dose response, cytotoxicity control for TCR NF-kB inhibitor project, luminescence, T-cell screen hits (AID 489026).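 Also: cells exposed to compound about 14 hours before the viability readout.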 The class given is functional, cell-based.
Experiment [11] can be described thus: inhibitors of SNCA 5'UTR-driven reporter translation, confirmation, H4 neuroglioma cells, luminescence (AID 1988). The class given is functional, cell-based.
A further experiment has as its system HT-1080. The experiment is described as follows: cytotoxicity in HT1080 fibrosarcoma cells, cell-based, fluorescence readout (AID 620). The class given is functional. The note with it: Homo sapiens.
Experiment [12] in a line: Luminescence Cell-Based Dose Response HTS to Identify Inhibitors of 5'UTR Stem-Loop Driven Prion Protein mRNA Translation in H4 Neuroglioblastoma Cells. [Related pubchem assays: 1827 (Project Summary), 1813 (Primary HTS)]. In kind it is functional.
Experiment [13] has as its target T2, Voltage-gated N-type calcium channel alpha-1B subunit/Amyloid beta A4 precursor protein-binding family A member 1 (Homo sapiens, UniProt Q00975+Q02410). The experiment is described as follows: disruptors of Mint-PDZ/N-type channel peptide interaction – biochemical, HTRF, set 2, SAR follow-up (AID 434980). In kind it is functional. A general note: Time-resolved FRET reads energy transfer from a long-lived donor to a nearby acceptor.

Experiment [14] concerns the target T2, Voltage-gated N-type calcium channel alpha-1B subunit/Amyloid beta A4 precursor protein-binding family A member 1. The experiment is described as follows: disruptors of Mint-PDZ/N-type channel peptide interaction – biochemical, HTRF, SAR follow-up (AID 2489). The class given is functional.

In general, AC50 refers to the concentration at which the activity in the assay is half-maximal. The EC50 is the concentration that produces a half-maximal response. The IC50 is the midpoint of a concentration-inhibition curve.

T2 sequence (Q00975 whole entry): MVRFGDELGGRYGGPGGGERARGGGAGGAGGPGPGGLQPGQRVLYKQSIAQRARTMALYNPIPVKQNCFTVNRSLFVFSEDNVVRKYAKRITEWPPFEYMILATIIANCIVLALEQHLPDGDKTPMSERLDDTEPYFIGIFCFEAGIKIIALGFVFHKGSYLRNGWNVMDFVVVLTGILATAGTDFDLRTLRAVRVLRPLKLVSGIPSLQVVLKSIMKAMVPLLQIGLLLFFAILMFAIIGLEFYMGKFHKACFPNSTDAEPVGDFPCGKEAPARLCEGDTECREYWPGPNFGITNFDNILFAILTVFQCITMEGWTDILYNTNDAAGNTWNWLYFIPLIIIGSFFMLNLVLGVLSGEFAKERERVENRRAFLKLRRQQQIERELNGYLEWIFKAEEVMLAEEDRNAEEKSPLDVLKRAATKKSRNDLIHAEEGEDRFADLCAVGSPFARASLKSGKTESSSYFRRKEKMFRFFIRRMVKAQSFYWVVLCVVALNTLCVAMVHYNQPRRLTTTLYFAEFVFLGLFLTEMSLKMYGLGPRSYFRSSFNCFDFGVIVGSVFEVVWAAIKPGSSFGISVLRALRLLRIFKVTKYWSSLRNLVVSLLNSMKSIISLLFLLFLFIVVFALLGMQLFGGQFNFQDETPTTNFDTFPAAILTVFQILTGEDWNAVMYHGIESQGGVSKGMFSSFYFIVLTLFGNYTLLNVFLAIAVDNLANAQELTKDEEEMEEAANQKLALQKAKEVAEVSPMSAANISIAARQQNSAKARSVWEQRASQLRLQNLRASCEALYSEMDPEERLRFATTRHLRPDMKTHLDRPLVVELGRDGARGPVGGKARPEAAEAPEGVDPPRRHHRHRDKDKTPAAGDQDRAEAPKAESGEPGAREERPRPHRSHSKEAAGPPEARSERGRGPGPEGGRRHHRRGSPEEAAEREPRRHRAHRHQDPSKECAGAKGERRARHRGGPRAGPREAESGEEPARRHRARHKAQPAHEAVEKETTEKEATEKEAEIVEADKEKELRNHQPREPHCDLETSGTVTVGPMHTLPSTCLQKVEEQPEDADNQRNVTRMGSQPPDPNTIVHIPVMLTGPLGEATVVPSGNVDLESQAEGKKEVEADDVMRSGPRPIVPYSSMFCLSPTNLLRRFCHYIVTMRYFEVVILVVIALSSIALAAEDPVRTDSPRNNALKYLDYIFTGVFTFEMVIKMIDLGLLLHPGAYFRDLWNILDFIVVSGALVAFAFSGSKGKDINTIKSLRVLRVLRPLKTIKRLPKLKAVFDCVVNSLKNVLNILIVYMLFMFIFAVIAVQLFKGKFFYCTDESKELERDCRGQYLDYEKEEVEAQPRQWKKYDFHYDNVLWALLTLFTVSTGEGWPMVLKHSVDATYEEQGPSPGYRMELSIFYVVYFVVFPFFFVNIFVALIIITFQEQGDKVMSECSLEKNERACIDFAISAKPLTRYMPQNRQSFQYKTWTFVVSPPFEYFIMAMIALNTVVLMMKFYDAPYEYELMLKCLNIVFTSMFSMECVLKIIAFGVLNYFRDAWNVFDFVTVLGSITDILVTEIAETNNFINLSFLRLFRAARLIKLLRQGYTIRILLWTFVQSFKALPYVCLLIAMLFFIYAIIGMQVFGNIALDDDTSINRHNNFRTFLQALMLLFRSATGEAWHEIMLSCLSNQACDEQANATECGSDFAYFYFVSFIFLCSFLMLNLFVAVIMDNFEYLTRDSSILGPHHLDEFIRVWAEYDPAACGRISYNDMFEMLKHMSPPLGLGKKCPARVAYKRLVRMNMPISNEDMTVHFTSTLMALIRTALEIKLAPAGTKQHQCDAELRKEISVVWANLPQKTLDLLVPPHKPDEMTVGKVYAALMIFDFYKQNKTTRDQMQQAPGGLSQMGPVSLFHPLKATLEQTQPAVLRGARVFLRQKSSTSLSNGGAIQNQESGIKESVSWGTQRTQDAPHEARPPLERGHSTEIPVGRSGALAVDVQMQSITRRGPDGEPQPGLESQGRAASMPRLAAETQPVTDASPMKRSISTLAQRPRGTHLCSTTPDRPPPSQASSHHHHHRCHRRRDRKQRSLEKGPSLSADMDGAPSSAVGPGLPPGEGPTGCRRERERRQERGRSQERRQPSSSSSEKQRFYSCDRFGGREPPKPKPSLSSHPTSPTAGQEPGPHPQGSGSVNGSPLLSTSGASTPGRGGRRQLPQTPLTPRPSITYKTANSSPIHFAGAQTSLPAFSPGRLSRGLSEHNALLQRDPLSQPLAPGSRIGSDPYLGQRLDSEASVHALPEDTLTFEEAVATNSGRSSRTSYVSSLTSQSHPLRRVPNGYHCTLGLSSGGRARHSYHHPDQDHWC
T2 sequence (Q02410 whole entry): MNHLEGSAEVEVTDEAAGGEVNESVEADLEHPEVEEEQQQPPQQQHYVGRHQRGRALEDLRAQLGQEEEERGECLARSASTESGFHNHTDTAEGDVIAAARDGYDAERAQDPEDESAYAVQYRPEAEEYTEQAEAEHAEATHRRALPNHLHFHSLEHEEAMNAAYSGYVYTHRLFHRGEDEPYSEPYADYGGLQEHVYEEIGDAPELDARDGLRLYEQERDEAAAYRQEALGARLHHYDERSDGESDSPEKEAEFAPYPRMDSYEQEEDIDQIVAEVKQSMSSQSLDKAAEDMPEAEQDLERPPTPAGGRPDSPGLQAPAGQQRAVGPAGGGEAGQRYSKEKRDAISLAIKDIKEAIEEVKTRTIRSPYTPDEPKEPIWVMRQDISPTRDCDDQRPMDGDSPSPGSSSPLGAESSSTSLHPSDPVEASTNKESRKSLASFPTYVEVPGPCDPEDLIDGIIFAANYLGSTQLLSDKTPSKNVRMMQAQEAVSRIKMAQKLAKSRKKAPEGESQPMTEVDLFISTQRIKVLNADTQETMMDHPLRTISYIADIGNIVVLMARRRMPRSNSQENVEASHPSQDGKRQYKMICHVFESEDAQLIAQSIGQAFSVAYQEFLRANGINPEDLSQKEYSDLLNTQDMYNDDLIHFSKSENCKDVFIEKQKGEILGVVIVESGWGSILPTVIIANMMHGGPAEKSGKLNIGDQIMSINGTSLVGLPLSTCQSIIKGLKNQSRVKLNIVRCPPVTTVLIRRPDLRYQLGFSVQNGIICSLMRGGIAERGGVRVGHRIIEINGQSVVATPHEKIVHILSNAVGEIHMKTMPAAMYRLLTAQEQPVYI
E3 ubiquitin-protein ligase Mdm2/Protein Mdm4, sequence (Q00987 whole entry): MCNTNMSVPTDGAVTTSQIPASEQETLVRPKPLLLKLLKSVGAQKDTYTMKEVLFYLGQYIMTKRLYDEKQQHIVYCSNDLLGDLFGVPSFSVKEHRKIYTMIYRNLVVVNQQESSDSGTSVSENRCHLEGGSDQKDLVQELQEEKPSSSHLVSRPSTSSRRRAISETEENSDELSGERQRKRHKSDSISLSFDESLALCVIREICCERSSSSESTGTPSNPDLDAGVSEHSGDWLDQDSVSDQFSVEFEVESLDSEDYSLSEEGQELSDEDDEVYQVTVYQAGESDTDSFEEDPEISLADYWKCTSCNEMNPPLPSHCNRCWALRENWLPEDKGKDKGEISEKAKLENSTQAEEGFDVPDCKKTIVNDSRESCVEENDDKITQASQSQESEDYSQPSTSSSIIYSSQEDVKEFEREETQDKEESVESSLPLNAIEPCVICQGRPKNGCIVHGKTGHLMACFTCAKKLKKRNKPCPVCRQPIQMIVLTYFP
E3 ubiquitin-protein ligase Mdm2/Protein Mdm4, sequence (O15151 whole entry): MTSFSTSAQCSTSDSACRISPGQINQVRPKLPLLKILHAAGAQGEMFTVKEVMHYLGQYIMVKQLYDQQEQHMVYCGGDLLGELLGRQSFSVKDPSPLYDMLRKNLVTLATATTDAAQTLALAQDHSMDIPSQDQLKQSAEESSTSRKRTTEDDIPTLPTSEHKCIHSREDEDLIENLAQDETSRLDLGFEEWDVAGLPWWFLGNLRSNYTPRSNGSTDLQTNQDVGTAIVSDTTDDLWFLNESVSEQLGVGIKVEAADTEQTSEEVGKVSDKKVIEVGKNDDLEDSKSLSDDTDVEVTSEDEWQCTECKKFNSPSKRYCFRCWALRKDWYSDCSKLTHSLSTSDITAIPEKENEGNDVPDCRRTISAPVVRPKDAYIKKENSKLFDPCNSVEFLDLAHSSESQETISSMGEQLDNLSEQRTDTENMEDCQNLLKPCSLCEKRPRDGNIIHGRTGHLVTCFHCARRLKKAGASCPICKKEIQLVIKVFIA
Alkaline phosphatase, placental type, sequence (P05187 whole entry): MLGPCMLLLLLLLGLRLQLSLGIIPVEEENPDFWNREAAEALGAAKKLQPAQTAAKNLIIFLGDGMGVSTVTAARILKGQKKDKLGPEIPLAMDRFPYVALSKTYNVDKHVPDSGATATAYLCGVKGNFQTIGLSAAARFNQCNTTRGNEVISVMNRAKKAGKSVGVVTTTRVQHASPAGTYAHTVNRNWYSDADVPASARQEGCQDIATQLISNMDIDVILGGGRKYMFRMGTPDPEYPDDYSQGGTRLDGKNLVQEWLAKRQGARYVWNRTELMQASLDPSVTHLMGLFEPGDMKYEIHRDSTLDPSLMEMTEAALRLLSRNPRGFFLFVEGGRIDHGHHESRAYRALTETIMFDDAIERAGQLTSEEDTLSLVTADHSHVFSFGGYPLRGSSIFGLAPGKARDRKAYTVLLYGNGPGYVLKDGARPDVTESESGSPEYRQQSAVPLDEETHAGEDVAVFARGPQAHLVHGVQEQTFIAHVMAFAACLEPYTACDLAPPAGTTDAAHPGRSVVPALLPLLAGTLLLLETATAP
CAAX prenyl protease 2, sequence (Q03530 whole entry): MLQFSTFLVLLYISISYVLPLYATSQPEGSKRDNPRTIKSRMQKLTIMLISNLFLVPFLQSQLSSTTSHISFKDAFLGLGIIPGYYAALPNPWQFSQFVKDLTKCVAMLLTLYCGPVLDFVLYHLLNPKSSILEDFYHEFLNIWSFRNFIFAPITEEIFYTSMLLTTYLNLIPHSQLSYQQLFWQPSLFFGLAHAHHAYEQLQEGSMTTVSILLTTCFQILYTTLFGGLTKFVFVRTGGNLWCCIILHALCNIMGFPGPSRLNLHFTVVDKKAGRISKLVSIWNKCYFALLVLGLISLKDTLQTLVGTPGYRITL

As for `C[C@@]12CCC=C[C@H]1[C@H](c1ccc(/C=C/c3ccccc3)cc1F)N(Cc1ccccc1)C2=O`, on CAAX prenyl protease 2, the AC50 is 45.9 µM (active).

With `COc1ccc2c(c1)C1(Nc3ccccc3-c3nc4ccccc4n31)C(=O)N2C` (stereo unspecified), the EC50 in [1] and in experiment [2] was > 20 µM (not active) throughout. Besides, the IC50 in experiment [3] is 2.85 µM (active).

For `COCc1cc(C)nc(SCC(=O)c2ccc(O)c(O)c2)c1C#N`, the IC50 in [4] is 2.16 µM (active); at Large T antigen it was 3.71 µM (active).

With `COCCn1c(C)cc(C2=NN=C(Nc3ccccc3F)SC2)c1C`, the EC50 in experiment [5] was 2.67 µM (active); in [6], 8.18 µM (active); in “cells” it was > 12 µM (not active); in [7], 1.3 µM (active); in experiment [8], < 0.16 µM (active); in [9], 1.69 µM (active). Moreover, the EC50 in experiment [11] is < 0.1 µM (active); in the experiment with HT-1080, > 50 µM (not active); in experiment [12], < 0.1 µM (active). The IC50 in experiment [10] was > 80 µM (inactive); in [3], 1.33 µM (active).

Consider `O=C(NCCc1cccc(Cl)c1)c1cc(-c2ccco2)nc2ccccc12`, for which the IC50 in [13] and in experiment [14] was > 56.8 µM (inactive) throughout.

As to `CC12C=CC(C)(O1)C1C(=O)N(c3ccc4c(c3)OCO4)C(=O)C12` (stereo unspecified), the IC50 in experiment [13] and in [14] was > 56.8 µM (inactive) in each case.
